Like-named read-outs stand apart in the source and are kept apart here.
Columns and labels:
[1] = target: T1, Ba/F3-FGFR1-transfected cells (Homo sapiens, UniProt P11362); assay: Ba/F3-FGFR1 (minus IL3) cellular proliferation assay, Alamar Blue; type: cell-based
T1 construct: BAF3-FGFR1 (MIN IL3) pIC50; other: minus IL3
How it was run: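 Viability of transfected Ba/F3-FGFR1 cells (20000 per well, RPMI-1640 with 10% FBS and 2 mM L-glutamine) was scored by resazurin-based Alamar Blue reduction over 4 h, after 24 h treatment with compound at 37 °C under 5% CO2.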

[2] = test system: Ba/F3-KDR-transfected cells; assay: Ba/F3-KDR (plus IL3) cellular proliferation assay, counterscreen with 10 ng/ml murine IL3; type: cell-based; settings: for BAF3-KDR (PLUS IL3) pIC50: plus IL3 (10 ng/ml murine IL3, counterscreen); for IC50: read-out: BAF3-KDR (PLUS IL3) pIC50 (converted)
Experimental: Ba/F3-KDR (Minus IL3 or Plus IL3) (Cellular Proliferation Assay)
In a 384 well plate, 100 n1 of compound dilution in DMSO was sprayed before adding 50 μl cell culture medium (phenol red free RPMI-1640, 10% FBS, 2 mM L-Glutamine and 50 μg/ml Gentamycin) containing 20000 cells per well of Ba/F3-KDR-transfected cells. Cells were put in an incubator at 37° C. and 5% CO2. After 24 hours, 10 μl of Alamar Blue solution (0.5 mM K3Fe(CN)6, 0.5 mM K4Fe(CN)6, 0.15 mM Resazurin and 100 mM Phosphate Buffer) was added to the wells, incubated for 4 hours at 37° C. and 5% CO2 before RFU's (Relative Fluorescence Units) (ex. 540 nm., em. 590 nm.) were measured in a fluororescence plate reader.
As a counterscreen the same experiment was performed in the presence of 10 ng/ml murine IL3.

[3] = target: T2, Ba/F3-KDR-transfected cells (Homo sapiens, UniProt P35968); assay: Ba/F3-KDR (minus IL3) cellular proliferation assay, Alamar Blue; type: cell-based
T2 construct: BAF3-KDR (MIN IL3) pIC50; other: minus IL3
How it was run: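 20000 cells/well, RPMI-1640 + 10% FBS + 2 mM L-Gln; compound 24 h, 37° C/5% CO2; Alamar Blue 4 h; RFU ex540/em590.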

[4] = test system: Ba/F3-FGFR3-transfected cells; assay: Ba/F3-FGFR3 (plus IL3) cellular proliferation assay, counterscreen with 10 ng/ml murine IL3; type: cell-based; settings: for BAF3-FGFR3 (PLUS IL3) pIC50: plus IL3 (10 ng/ml murine IL3, counterscreen); for IC50: read-out: BAF3-FGFR3 (PLUS IL3) pIC50 (converted)
How it was run: (§1)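 With or without 10 ng/ml murine IL3, FGFR3-dependent Ba/F3 cells were treated 24 h with compound, then viability was gauged by Alamar Blue fluorescence after 4 h (ex 540/em 590 nm).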

[5] = test system: Ba/F3-FGFR1-transfected cells; assay: Ba/F3-FGFR1 (plus IL3) cellular proliferation assay, counterscreen with 10 ng/ml murine IL3; type: cell-based; settings: for BAF3-FGFR1 (PLUS IL3) pIC50: plus IL3 (10 ng/ml murine IL3, counterscreen); for IC50: read-out: BAF3-FGFR1 (PLUS IL3) pIC50 (converted)
How it was run: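 Ba/F3-FGFR1 cells (20000/well) in RPMI-1640 with 10% FBS exposed to compound for 24 h at 37° C., 5% CO2, then Alamar Blue (resazurin) added for 4 h; fluorescence read at ex 540/em 590 nm. Counterscreen run identically with 10 ng/ml murine IL3.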

FGFR2 (h) = FGFR2 (h) (Homo sapiens, UniProt P21802); assay: FGFR2 (enzymatic assay), TR-FRET; type: biochemical; settings: enzymatic assay, read-out: FGFR 2 pIC50 (converted)
How it was run: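 Kinase reaction in 50 mM HEPES pH 7.5 with 6 mM MnCl2, 1 mM DTT, 0.1 mM Na3VO4 and 0.01% Triton-X-100 contained FGFR2 (h) at 150 ng/ml. Biotinylated Flt3 peptide (500 nM) served as substrate with 0.4 μM ATP, compound added in 1% DMSO final.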

KDR (h) = KDR (h) (Homo sapiens, UniProt P35968); assay: KDR (VEGFR2) (enzymatic assay), TR-FRET; type: biochemical; settings: for IC50: read-out: VEGFR 2 (KDR) pIC50 (converted)
How it was run: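 Read-out is TR-FRET (ex 340 nm, em 620 and 655 nm) in RFU, after an EDTA stop carrying Eu-labelled anti-phosphotyrosine and SA-XL-665 (60 min, RT). The preceding kinase reaction ran 120 min at RT with 150 ng/ml enzyme, 500 nM Btn-Flt3 and 3 μM ATP.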

FGFR4 (h) = FGFR4 (h) (Homo sapiens, UniProt P22455); assay: FGFR4 (enzymatic assay), TR-FRET; type: biochemical; settings: FGFR 4 pIC50, enzymatic assay
FGFR3 (h) = FGFR3 (h) (Homo sapiens, UniProt P22607); assay: FGFR3 (enzymatic assay), TR-FRET; type: biochemical; settings: read-out: FGFR 3 pIC50 (converted)
Source text: Time-Resolved Fluorescence Resonance Energy Transfer (TR-FRET) signal (ex340 nm.

FGFR1 (h) = FGFR1 (h) (Homo sapiens, UniProt P11362); assay: FGFR1 (enzymatic assay), TR-FRET; type: biochemical; settings: read-out: FGFR 1 pIC50 (converted)
[6] = target: T3, Ba/F3-FGFR3-transfected cells (Homo sapiens, UniProt P22607); assay: Ba/F3-FGFR3 (minus IL3) cellular proliferation assay, Alamar Blue; type: cell-based
T3 construct: BAF3-FGFR3 (MIN IL3) pIC50; other: minus IL3
How it was run: as §1

[7] = target: Ba/F3-FGFR4-transfected cells (Homo sapiens, UniProt P22455); assay: Ba/F3-FGFR4 cellular proliferation assay, Alamar Blue; type: cell-based
How it was run: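 20000 cells/well, RPMI-1640 (phenol red free) + 10% FBS + 2 mM L-Gln; cpd from DMSO; 24 h, 37° C, 5% CO2; Alamar Blue 4 h; RFU ex 540/em 590 nm.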

[8] = average values if tested multiple times

T2 sequence (P35968 whole entry, change not shown): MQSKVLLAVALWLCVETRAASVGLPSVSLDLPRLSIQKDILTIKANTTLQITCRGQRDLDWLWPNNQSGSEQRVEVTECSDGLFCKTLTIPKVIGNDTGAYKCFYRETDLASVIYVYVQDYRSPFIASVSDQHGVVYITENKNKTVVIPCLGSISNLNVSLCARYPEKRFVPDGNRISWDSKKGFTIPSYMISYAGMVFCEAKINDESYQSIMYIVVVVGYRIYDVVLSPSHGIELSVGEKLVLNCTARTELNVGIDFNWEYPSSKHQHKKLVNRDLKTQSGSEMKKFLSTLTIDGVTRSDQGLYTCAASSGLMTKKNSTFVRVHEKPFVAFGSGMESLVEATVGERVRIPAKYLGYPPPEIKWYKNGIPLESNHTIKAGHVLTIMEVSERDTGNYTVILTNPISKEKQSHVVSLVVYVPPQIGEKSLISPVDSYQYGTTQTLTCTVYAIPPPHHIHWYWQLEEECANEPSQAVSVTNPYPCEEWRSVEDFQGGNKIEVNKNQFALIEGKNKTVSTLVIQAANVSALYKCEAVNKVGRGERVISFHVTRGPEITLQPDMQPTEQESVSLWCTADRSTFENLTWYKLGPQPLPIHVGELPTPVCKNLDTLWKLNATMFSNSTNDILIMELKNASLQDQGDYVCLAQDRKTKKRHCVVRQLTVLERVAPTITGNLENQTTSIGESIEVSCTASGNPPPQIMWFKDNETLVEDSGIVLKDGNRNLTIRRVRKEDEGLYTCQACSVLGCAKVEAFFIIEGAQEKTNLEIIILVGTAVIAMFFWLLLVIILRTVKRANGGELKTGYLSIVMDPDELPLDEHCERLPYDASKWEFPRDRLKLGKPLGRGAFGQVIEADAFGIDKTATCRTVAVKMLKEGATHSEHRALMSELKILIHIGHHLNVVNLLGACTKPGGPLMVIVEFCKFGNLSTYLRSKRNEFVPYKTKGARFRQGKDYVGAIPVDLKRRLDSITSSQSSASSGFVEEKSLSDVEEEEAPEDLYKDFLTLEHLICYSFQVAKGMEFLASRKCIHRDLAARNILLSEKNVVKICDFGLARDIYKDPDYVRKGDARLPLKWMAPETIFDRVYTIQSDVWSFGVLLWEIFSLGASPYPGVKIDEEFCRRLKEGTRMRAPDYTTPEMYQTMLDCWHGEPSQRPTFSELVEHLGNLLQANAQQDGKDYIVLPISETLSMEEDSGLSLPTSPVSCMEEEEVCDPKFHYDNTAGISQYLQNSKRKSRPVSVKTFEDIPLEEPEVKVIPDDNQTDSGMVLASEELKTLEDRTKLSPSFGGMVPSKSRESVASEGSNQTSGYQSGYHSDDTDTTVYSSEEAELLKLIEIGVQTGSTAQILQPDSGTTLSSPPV
T3 sequence (P22607 whole entry, change not shown): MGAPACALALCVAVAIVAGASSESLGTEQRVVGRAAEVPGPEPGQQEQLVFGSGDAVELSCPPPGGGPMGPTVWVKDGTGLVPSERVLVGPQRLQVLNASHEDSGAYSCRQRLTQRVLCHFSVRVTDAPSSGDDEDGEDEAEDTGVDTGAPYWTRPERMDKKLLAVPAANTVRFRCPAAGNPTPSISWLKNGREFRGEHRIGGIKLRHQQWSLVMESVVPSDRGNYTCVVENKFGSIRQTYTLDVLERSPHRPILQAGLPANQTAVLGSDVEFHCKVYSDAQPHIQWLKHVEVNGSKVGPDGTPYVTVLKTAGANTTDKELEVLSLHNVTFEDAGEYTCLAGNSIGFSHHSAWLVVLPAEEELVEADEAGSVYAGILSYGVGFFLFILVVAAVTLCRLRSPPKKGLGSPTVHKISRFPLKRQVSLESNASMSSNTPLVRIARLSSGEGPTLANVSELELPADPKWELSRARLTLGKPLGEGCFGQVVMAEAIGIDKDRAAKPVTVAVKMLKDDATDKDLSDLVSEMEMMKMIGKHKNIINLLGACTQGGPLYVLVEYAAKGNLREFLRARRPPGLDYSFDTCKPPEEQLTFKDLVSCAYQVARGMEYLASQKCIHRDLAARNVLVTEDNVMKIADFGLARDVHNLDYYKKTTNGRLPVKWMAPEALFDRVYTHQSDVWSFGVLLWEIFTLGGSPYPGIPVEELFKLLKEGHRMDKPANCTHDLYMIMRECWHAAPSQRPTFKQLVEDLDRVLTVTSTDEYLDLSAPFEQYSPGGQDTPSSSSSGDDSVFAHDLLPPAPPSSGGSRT
Sequence of FGFR1 (h) (P11362 22-822): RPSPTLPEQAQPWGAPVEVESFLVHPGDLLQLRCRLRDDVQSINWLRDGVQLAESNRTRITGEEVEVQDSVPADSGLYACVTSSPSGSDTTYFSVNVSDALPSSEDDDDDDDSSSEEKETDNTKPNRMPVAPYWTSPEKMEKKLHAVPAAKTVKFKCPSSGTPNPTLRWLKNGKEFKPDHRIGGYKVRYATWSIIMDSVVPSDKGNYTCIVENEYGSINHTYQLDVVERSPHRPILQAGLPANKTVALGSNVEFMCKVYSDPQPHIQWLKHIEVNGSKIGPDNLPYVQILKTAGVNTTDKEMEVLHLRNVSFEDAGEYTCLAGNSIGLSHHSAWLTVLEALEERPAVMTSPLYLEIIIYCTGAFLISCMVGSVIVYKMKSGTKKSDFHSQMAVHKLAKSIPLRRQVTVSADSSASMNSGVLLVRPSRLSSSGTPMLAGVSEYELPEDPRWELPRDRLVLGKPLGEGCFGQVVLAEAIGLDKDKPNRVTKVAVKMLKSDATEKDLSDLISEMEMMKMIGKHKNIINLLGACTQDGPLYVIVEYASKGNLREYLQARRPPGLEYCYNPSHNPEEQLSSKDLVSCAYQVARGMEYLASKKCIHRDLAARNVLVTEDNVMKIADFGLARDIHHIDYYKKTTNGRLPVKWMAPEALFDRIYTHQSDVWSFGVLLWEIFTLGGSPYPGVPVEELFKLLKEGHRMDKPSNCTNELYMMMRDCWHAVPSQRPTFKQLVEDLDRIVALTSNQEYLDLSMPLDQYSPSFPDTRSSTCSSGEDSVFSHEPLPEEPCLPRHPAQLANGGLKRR
Sequence of FGFR3 (h) (P22607 23-806): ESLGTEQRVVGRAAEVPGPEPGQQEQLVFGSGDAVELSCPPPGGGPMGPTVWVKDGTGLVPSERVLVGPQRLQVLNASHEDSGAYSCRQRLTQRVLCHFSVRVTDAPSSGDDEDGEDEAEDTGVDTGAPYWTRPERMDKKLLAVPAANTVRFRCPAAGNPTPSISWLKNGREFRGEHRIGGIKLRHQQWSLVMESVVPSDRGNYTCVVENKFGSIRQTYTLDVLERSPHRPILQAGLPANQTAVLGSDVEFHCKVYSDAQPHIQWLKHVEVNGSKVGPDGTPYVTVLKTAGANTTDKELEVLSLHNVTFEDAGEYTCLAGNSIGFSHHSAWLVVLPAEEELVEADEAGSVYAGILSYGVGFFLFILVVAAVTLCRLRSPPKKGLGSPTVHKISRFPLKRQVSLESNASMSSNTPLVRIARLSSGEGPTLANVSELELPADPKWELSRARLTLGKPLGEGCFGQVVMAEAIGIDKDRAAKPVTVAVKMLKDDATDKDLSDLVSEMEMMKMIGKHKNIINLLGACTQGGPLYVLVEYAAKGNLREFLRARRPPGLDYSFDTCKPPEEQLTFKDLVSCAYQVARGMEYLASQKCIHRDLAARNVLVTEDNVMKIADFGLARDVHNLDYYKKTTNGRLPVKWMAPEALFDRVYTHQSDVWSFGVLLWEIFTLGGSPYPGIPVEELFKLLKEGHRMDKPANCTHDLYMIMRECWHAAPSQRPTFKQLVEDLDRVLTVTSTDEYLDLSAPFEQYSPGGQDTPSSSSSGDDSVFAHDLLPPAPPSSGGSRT
Sequence of Ba/F3-FGFR4-transfected cells (P22455 whole entry, change not shown): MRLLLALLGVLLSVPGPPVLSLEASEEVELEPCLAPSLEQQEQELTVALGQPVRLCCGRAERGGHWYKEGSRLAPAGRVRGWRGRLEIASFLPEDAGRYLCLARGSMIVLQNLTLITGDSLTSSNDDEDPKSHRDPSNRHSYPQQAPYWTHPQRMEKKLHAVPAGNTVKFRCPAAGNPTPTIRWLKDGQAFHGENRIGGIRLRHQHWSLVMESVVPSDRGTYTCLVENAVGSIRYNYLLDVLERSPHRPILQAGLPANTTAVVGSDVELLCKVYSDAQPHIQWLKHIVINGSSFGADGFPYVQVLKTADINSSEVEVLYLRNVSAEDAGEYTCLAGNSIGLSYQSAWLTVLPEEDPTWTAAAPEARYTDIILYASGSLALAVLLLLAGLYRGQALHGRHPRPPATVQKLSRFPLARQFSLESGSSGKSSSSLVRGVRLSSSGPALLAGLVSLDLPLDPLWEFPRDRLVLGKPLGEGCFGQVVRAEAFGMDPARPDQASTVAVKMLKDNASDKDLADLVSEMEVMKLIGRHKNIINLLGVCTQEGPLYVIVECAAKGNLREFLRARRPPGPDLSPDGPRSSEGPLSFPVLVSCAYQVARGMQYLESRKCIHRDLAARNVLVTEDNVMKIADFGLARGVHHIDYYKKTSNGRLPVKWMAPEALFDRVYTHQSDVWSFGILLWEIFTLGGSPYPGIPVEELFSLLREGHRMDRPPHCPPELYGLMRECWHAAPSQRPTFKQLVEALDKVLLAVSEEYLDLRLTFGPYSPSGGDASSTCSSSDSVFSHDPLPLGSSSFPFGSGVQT

| SMILES | BAF3-FGFR1 (MIN IL3) pIC50 [1] | BAF3-KDR (PLUS IL3) pIC50 [2] | BAF3-KDR (MIN IL3) pIC50 [3] | BAF3-FGFR3 (PLUS IL3) pIC50 [4] | BAF3-FGFR1 (PLUS IL3) pIC50 [5] | IC50 (FGFR2 (h); [8]) [nM] | IC50 (KDR (h); [8]) [nM] | IC50 (FGFR4 (h); [8]) [nM] | IC50 (FGFR3 (h); [8]) [nM] | IC50 (FGFR1 (h); [8]) [nM] | BAF3-FGFR3 (MIN IL3) pIC50 [6] | BAF3-FGFR4 pIC50 [7] | IC50 [2] [nM] | IC50 [4] [nM] | IC50 [5] [nM] | IC50 (FGFR2 (h)) [nM] | IC50 (FGFR4 (h)) [nM] | IC50 (FGFR3 (h)) [nM] | IC50 (FGFR1 (h)) [nM] | IC50 (KDR (h)) [nM] | also measured |
| --- | --- | --- | --- | --- | --- | --- | --- | --- | --- | --- | --- | --- | --- | --- | --- | --- | --- | --- | --- | --- | --- |
| COc1cc(OC)c(F)c(N(CC2CCC(=O)N2)c2ccc3ncc(-c4cnn(C)c4)nc3n2)c1F (stereo not drawn) [Compound 48] | 8.00 | <5 | 6.03 | <5 | <5 | 3.24 | 24.5 | 2.19 | 1.7 | 1.26 | ~7.94 | 6.89 | – | – | – | – | – | – | – | – | – |
| COc1cc(OC)c(F)c(N(CC2CCC(=O)N2)c2ccc3ncc(-c4cnn(C)c4)nc3n2)c1 (stereo not drawn) [Compound 52] | 7.10 | <5 | 5.56 | <5 | <5 | 2.69 | 25.1 | 4.79 | 1.95 | 2.57 | 7.10 | 6.55 | – | – | – | – | – | – | – | – | – |
| COc1cc(/N=c2\ccc3ncc(-c4cnn(C)c4)nc3n2CC2CCC(=O)N2)c(F)c(OC)c1 (stereo not drawn) [Compound 53] | 7.47 | <5 | 5.99 | <5 | <5 | 1.62 | 12.3 | 3.31 | 1.1 | 1.2 | 7.54 | 6.85 | – | – | – | – | – | – | – | – | – |
| COc1cc(OC)c(F)c(N(CC(O)COC(C)C)c2ccc3ncc(-c4cnn(C)c4)nc3n2)c1F (stereo not drawn) [Compound 61] | 7.56 | <5 | 6.29 | <5 | <5 | 4.17 | 16.6 | 4.07 | 3.98 | 2.24 | 7.87 | 7.56 | – | – | – | – | – | – | – | – | – |
| COc1cc(OC)c(F)c(N(CC(O)COC(C)C)c2ccc3ncc(-c4cnn(C)c4)nc3n2)c1F (stereo not drawn) [Compound 62] | 8.06 | <5 | 6.21 | <5 | <5 | 7.76 | 32.4 | 3.31 | 5.5 | 4.07 | 8.10 | 7.92 | – | – | – | – | – | – | – | – | – |
| CNCCn1/c(=N/c2c(F)ccc(OC)c2Cl)ccc2ncc(-c3cnn(C)c3)nc21 [Compound 70] | 5.75 | – | <5 | – | – | 23.4 | 537 | 93.3 | 38.9 | 39.8 | 6.31 | 5.69 | > 10000 | > 10000 | > 10000 | – | – | – | – | – | – |
| COc1cc(OC)c(F)c(N(Cc2nc3ccccc3[nH]2)c2ccc3ncc(-c4cnn(C)c4)nc3n2)c1 [Compound 80] | 7.76 | – | 5.79 | – | – | 2.63 | 10.2 | 1.55 | 1.82 | 1.35 | 8.08 | 7.36 | > 10000 | > 10000 | > 10000 | – | – | – | – | – | – |
| CNCCn1/c(=N/c2c(Cl)c(OC)cc(OC)c2Cl)ccc2ncc(-c3cnn(C)c3)nc21 [Compound 82] | 6.67 | – | <5 | – | – | 10.7 | 490 | 182 | 14.1 | 11.7 | ~6.61 | 5.43 | > 10000 | > 10000 | > 10000 | – | – | – | – | – | – |
| COc1ccc(Cl)c(N(CC2CCC(=O)N2)c2ccc3ncc(-c4cnn(C)c4)nc3n2)c1Cl (stereo not drawn) [Compound 94] | 5.52 | <5 | <5 | <5 | <5 | – | – | – | – | – | ~5.56 | <5 | – | – | – | 49 | 676 | 81.3 | 97.7 | – | VEGFR 2 (KDR) pIC50 (KDR (h)): <6 |
| CNCCn1/c(=N/c2c(F)c(OC)cc(OC)c2F)ccc2ncc(-c3cn[nH]c3)nc21 [Compound 121] | 7.38 | – | 5.25 | – | – | – | – | – | – | – | 6.88 | 6.08 | > 10000 | > 10000 | > 10000 | 2.57 | 2.95 | 1 | 1.62 | 26.9 | – |
| COc1cc(/N=c2\ccc3ncc(-c4cnn(C)c4)nc3n2CCCN2CCCC2=O)cc(OC)c1 [Compound 133] | 7.30 | – | 6.39 | – | – | – | – | – | – | – | ~7.58 | 6.73 | > 10000 | > 10000 | > 10000 | 1.23 | 1.58 | 0.724 | 1 | 5.89 | – |
| COc1cc(/N=c2\ccc3ncc(-c4cnn(C)c4)nc3n2CCN2CCCC2=O)cc(OC)c1 [Compound 150] | 6.80 | – | 5.34 | – | – | – | – | – | – | – | ~7.06 | 6.18 | > 10000 | > 10000 | > 10000 | 2.51 | 14.8 | 3.55 | 3.8 | 30.9 | – |
| COc1cc(/N=c2\ccc3ncc(-c4cnn(C)c4)nc3n2CC2CCC(=O)N2C)c(F)c(OC)c1 (stereo not drawn) [Compound 160] | 7.58 | <5 | 5.89 | <5 | <5 | – | – | – | – | – | 7.20 | 6.99 | – | – | – | 1.82 | ~3.39 | 1.07 | 1.17 | 7.24 | – |
